Several values for one entry are separate records, joined by “and”; a condition that tells them apart may be missing. Equal values may be shown once. Inconclusive results and toxic doses are left out. Rule as the data show it: active = T/C of 150% or more; inactive = T/C below 125%.
System: L1210 leukemia ip in BDF1 mice, survival T/C
Test: NCI In Vivo Anticancer Drug Screen. Data for tumor model L1210 Leukemia (intraperitoneal) in B6D2F1 (BDF1) mice
Conditions: endpoint: mean survival time, higher = longer survival
Summary of the method: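 Value reflects the ratio of survival in compound-treated mice to survival in vehicle-treated controls, with both groups carrying the same transplanted tumor.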

[1] = dose: 100.0 mg/kg/injection, schedule: Q01DX001 (ip), vehicle: saline
[2] = dose: 200.0 mg/kg/injection, schedule: Q01DX001 (ip), vehicle: saline
[3] = dose: 400.0 mg/kg/injection, schedule: Q01DX001 (ip), vehicle: saline
[4] = dose: 100.0 mg/kg/injection, schedule: Q04DX003 (ip), vehicle: saline with Tween-80
[5] = dose: 200.0 mg/kg/injection, schedule: Q04DX003 (ip), vehicle: saline with Tween-80
[6] = dose: 100.0 mg/kg/injection, schedule: Q04DX003 (ip), vehicle: saline
[7] = dose: 200.0 mg/kg/injection, schedule: Q04DX003 (ip), vehicle: saline
[8] = dose: 400.0 mg/kg/injection, schedule: Q04DX003 (ip), vehicle: saline
[9] = dose: 100.0 mg/kg/injection, schedule: Q01DX009 (ip), vehicle: Klucel (hydroxypropylcellulose) (HPC)
[10] = dose: 100.0 mg/kg/injection, schedule: Q04DX003 (ip), vehicle: Klucel (hydroxypropylcellulose) (HPC)
[11] = dose: 200.0 mg/kg/injection, schedule: Q01DX009 (ip), vehicle: Klucel (hydroxypropylcellulose) (HPC)
[12] = dose: 200.0 mg/kg/injection, schedule: Q04DX003 (ip), vehicle: Klucel (hydroxypropylcellulose) (HPC)
[13] = dose: 400.0 mg/kg/injection, schedule: Q01DX009 (ip), vehicle: Klucel (hydroxypropylcellulose) (HPC)
[14] = dose: 400.0 mg/kg/injection, schedule: Q04DX003 (ip), vehicle: Klucel (hydroxypropylcellulose) (HPC)
[15] = dose: 100.0 mg/kg/injection, schedule: Q01DX009 (ip), vehicle: saline with Tween-80
[16] = dose: 400.0 mg/kg/injection, schedule: Q01DX009 (ip), vehicle: saline with Tween-80
[17] = dose: 400.0 mg/kg/injection, schedule: Q04DX003 (ip), vehicle: saline with Tween-80
[18] = dose: 25.0 mg/kg/injection, schedule: Q01DX009 (ip), vehicle: saline with Tween-80
[19] = dose: 100.0 mg/kg/injection, schedule: Q01DX009 (ip), vehicle: saline
[20] = dose: 100.0 mg/kg/injection, schedule: Q04DX002 (ip), vehicle: Klucel (hydroxypropylcellulose) (HPC)
[21] = dose: 200.0 mg/kg/injection, schedule: Q04DX002 (ip), vehicle: Klucel (hydroxypropylcellulose) (HPC)
[22] = dose: 400.0 mg/kg/injection, schedule: Q04DX002 (ip), vehicle: Klucel (hydroxypropylcellulose) (HPC)

Measured: T/C

CC(=O)Nc1cc(F)c([N+](=O)[O-])cc1[N+](=O)[O-]
inactive: dose: 0.62 mg/kg/injection, schedule: Q01DX009 (ip), vehicle: saline 96 % of control | dose: 1.25 mg/kg/injection, schedule: Q01DX009 (ip), vehicle: saline 102 % of control | dose: 2.5 mg/kg/injection, schedule: Q01DX009 (ip), vehicle: saline 93 % of control | dose: 2.5 mg/kg/injection, schedule: Q01DX015 (ip), vehicle: carboxymethylcellulose (CMC) 95 % of control | dose: 3.13 mg/kg/injection, schedule: Q04DX003 (ip), vehicle: saline with Tween-80 106 % of control | dose: 5.0 mg/kg/injection, schedule: Q01DX009 (ip), vehicle: saline 104 % of control | dose: 5.0 mg/kg/injection, schedule: Q01DX015 (ip), vehicle: carboxymethylcellulose (CMC) 95 % of control | dose: 6.25 mg/kg/injection, schedule: Q04DX003 (ip), vehicle: saline with Tween-80 90 % of control | dose: 10.0 mg/kg/injection, schedule: Q01DX009 (ip), vehicle: saline with Tween-80 92 % of control | dose: 10.0 mg/kg/injection, schedule: Q01DX009 (ip), vehicle: saline 96 % of control | dose: 10.0 mg/kg/injection, schedule: Q01DX015 (ip), vehicle: carboxymethylcellulose (CMC) 91 % of control | dose: 12.5 mg/kg/injection, schedule: Q04DX003 (ip), vehicle: saline with Tween-80 94 % of control | dose: 12.5 mg/kg/injection, schedule: Q04DX003 (ip), vehicle: saline 86 % of control | dose: 20.0 mg/kg/injection, schedule: Q01DX009 (ip), vehicle: saline with Tween-80 103 % of control | dose: 25.0 mg/kg/injection, schedule: Q04DX003 (ip), vehicle: saline with Tween-80 105 % of control | dose: 50.0 mg/kg/injection, schedule: Q01DX001 (ip), vehicle: saline 104 % of control and 106 % of control | [1] 95 % of control and 91 % of control | [2] 112 % of control | [3] 106 % of control

CCCCCCOP1(=O)C=C(C)CC1 (stereo unspecified)
inactive: [4] 93 % of control | [5] 90 % of control

CNC(C(=O)OCc1ccccc1)C(C)C (stereo unspecified)
inactive: [6] 112 % of control | [7] 99 % of control | [8] 100 % of control

Nc1ccc2c(c1)Cc1cc(Br)ccc1-2
inactive: [9] 103 % of control | [10] 96 % of control | [11] 101 % of control | [12] 102 % of control | [13] 101 % of control | [14] 108 % of control

O=C(Nc1cccc(Cl)c1)c1ccc2ccccc2c1O
inactive: dose: 100.0 mg/kg/injection, schedule: Q01DX001 (ip), vehicle: saline with Tween-80 97 % of control | [15] 106 % of control | [4] 98 % of control | dose: 200.0 mg/kg/injection, schedule: Q01DX001 (ip), vehicle: saline with Tween-80 93 % of control | dose: 200.0 mg/kg/injection, schedule: Q01DX009 (ip), vehicle: saline with Tween-80 98 % of control | [5] 96 % of control | dose: 400.0 mg/kg/injection, schedule: Q01DX001 (ip), vehicle: saline with Tween-80 97 % of control | [16] 101 % of control | [17] 96 % of control

Cc1cc(C)c(CN)cc1CN
inactive: [18] 95 % of control | dose: 50.0 mg/kg/injection, schedule: Q01DX009 (ip), vehicle: saline with Tween-80 98 % of control | [15] 100 % of control | [4] 97 % of control

O=C(Oc1ccccc1Cl)c1ccc(Cl)cc1Cl
inactive: [9] 91 % of control | [10] 93 % of control | [11] 90 % of control | [12] 96 % of control | [13] 91 % of control | [14] 98 % of control

O=c1c2ccccc2nnn1-c1ccccc1Cl
inactive: [19] 105 % of control | dose: 200.0 mg/kg/injection, schedule: Q01DX009 (ip), vehicle: saline 103 % of control | dose: 400.0 mg/kg/injection, schedule: Q01DX009 (ip), vehicle: saline 89 % of control

CCCC/C=C/Br
inactive: [6] 100 % of control | dose: 200.0 mg/kg/injection, schedule: Q01DX009 (ip), vehicle: acetone 101 % of control | [7] 108 % of control | [8] 105 % of control

COC(=O)c1nc(Cl)nc(N)c1Cl
inactive: [10] 94 % of control | [12] 94 % of control | [14] 97 % of control

CC(C(O)c1cccs1)C(O)(C(F)(F)F)C(F)(F)F (stereo unspecified)
inactive: [4] 102 % of control | [5] 91 % of control | [17] 88 % of control

O=C(O)c1ccc[cH-]1.O=C(O)c1ccc[cH-]1.[Fe+2]
inactive: [20] 110 % of control | [21] 100 % of control | [22] 103 % of control

O=C(O)C1=CCC=CC1C(=O)O (stereo unspecified)
inactive: dose: 25.0 mg/kg/injection, schedule: Q01DX009 (ip), vehicle: saline 93 % of control | dose: 50.0 mg/kg/injection, schedule: Q01DX009 (ip), vehicle: saline 95 % of control | [19] 98 % of control | [6] 95 % of control | [7] 93 % of control

O=C(/C=C/c1ccc2c(c1)OCO2)c1ccc2c(c1)OCO2
inactive: [9] 106 % of control | [10] 98 % of control | [11] 100 % of control | [12] 104 % of control | [13] 100 % of control | [14] 101 % of control

C1CCC2[N-]CC3CCCCC3[N-]CC3CCCCC3[N-]CC3CCCCC3[N-]CC2C1.CO.[Co+3] (stereo unspecified)
inactive: [20] 110 % of control | [21] 103 % of control

CCCCCCCCN(c1ccc(C(=O)O)cc1)S(=O)(=O)c1ccc(C)cc1
inactive: dose: 75.0 mg/kg/injection, schedule: Q01DX009 (ip), vehicle: Klucel (hydroxypropylcellulose) (HPC) 103 % of control | dose: 150.0 mg/kg/injection, schedule: Q01DX009 (ip), vehicle: Klucel (hydroxypropylcellulose) (HPC) 100 % of control | dose: 300.0 mg/kg/injection, schedule: Q01DX009 (ip), vehicle: Klucel (hydroxypropylcellulose) (HPC) 90 % of control

CCC(=O)O[C@H]1CC[C@H]2[C@@H]3[C@@H](C)CC4=CC(=O)CC[C@]4(C)[C@H]3CC[C@]12C
inactive: [15] 93 % of control | [4] 90 % of control | [5] 90 % of control | [16] 91 % of control | [17] 87 % of control

Cc1ccc(C)c(N=C=O)c1
inactive: dose: 6.25 mg/kg/injection, schedule: Q01DX009 (ip), vehicle: saline with Tween-80 98 % of control | dose: 12.5 mg/kg/injection, schedule: Q01DX009 (ip), vehicle: saline with Tween-80 96 % of control | [18] 93 % of control | [4] 104 % of control | [5] 109 % of control

OCC1OC(n2cnc3ccccc32)C(O)C1O (stereo unspecified)
inactive: [1] 100 % of control | [2] 100 % of control | [3] 95 % of control

COc1ccc2c(c1)CCC1=C2CCC(C(=O)O)C1(C)C(=O)O (stereo unspecified)
inactive: dose: 100.0 mg/kg/injection, schedule: Q01DX001 (ip), vehicle: Klucel (hydroxypropylcellulose) (HPC) 97 % of control | dose: 200.0 mg/kg/injection, schedule: Q01DX001 (ip), vehicle: Klucel (hydroxypropylcellulose) (HPC) 108 % of control | dose: 400.0 mg/kg/injection, schedule: Q01DX001 (ip), vehicle: Klucel (hydroxypropylcellulose) (HPC) 92 % of control

O=C(O)c1ccccc1C(=O)c1ccc2ccccc2c1
inactive: dose: 12.5 mg/kg/injection, schedule: Q04DX002 (ip), vehicle: saline with Tween-80 94 % of control | dose: 25.0 mg/kg/injection, schedule: Q04DX002 (ip), vehicle: saline with Tween-80 88 % of control | dose: 50.0 mg/kg/injection, schedule: Q04DX002 (ip), vehicle: saline with Tween-80 91 % of control

Cc1ccnc(NC(=O)Nc2ccccc2Cl)c1
inactive: [20] 90 % of control | [21] 93 % of control | [22] 118 % of control

CNc1nc(=O)n(C2CCCO2)cc1C (stereo unspecified)
inactive: [1] 90 % of control | [2] 98 % of control | [3] 95 % of control

Cc1c(C)c(Br)c(C)c(-c2c(O)c(Br)c(-c3c(C)c(C)c(C)c(Br)c3C)c(O)c2Br)c1C
inactive: [4] 97 % of control | [5] 90 % of control

Nc1nc(N)c2[nH]c(CCCc3ccccc3)nc2n1
inactive: dose: 50.0 mg/kg/injection, schedule: Q04DX002 (ip), vehicle: Klucel (hydroxypropylcellulose) (HPC) 98 % of control | [20] 98 % of control | [21] 98 % of control
